Assay type in all cases: functional, cell-based
Test [1] can be described thus: Cytotoxicity against the growth of LS174T human colon cancer cells was determined using sulforhodamine B assay in the presence of Nitroreductase+NADH.
Test [2] can be described thus: Cytotoxicity against the growth of LS174T human colon cancer cells was determined using sulforhodamine B assay. (Sulforhodamine B stains cellular protein and so reports cell mass.)
A short description of test [3]: Cytotoxicity against the growth of […] human colon cancer cells was determined using sulforhodamine B assay. The following applies: Cancer cell lines.
Test [4] in a line: Cytotoxicity against the growth of […] human colon cancer cells was determined using sulforhodamine B assay in the presence of Nitroreductase+NADH. The note with it: Cancer cell lines.

Molecules are shown by their SMILES. pIC50: −log10 of the molar value.

For orientation: pIC50 means the negative decadic logarithm of the IC50, by convention in mol/L. With `Cn1cc(NC(=O)c2cc(NC(=O)c3cc(NC(=O)c4ccc(N(CCCl)CCCl)cc4)cn3C)cn2C)cc1C(=O)NCCCNC(=O)OCc1ccc([N+](=O)[O-])cc1`, the negative logarithm of the IC50 (pIC50) in test [1] was 7.70; in test [2], 5.64; in test [3], 4.64; in test [4] it was 5.03.

Take `Cn1cc(NC(=O)c2cc(NC(=O)c3cc(NC(=O)c4ccc(N(CCCl)CCCl)cc4)cn3C)cn2C)cc1C(=O)NCCCN`: the results for the pIC50 in test [2] and in test [3] were 7.70 and 5.00, respectively.

The values above are taken from ChEMBL document CHEMBL1129910, “Synthesis of an aminopropyl analog of the experimental anticancer drug tallimustine, and activation of its 4-nitrobenzylcarbamoyl prodrug by nitroreductase and NADH” (Bioorg Med Chem Lett, 1997).
